In article PMC5755735, “Discovery of indolylpiperazinylpyrimidines with dual-target profiles at adenosine A2A and dopamine D2 receptors for Parkinson's disease treatment” (PLoS ONE, 2018):

How the values were obtained:
LRRK2 G2019S flies = experiment: fly viability / survival of mutant LRRK2 G2019S flies; assay type: in vivo; details: for effect on fly viability / mortality: concentrations in the 50–100 μM range; for effect on fly viability: ligand concentration 500 μM
Procedure: Studies have shown that expression of the LRRK2-G2019S mutantion in Drosophila caused more severe PD phenotypes, including locomotor dysfunction, loss of dopaminergic neurons, and early mortality, relative to that of wild-type LRRK2 [31]. Prior to evaluating compounds 5 and 6 in the Drosophila model of PD, the effect of compound concentrations on fly viability was studied. At the ligand concentration of 500 μM, both compounds were lethal to G2019S flies (data not shown). […] As there was no remarkable difference in the survival rate between 50 and 100 μM for compound 5, this range was selected for compound 5 for the subsequent climbing assay and quantification of DA neurons.
Fly lines for 24B-Gal4 (muscle specific), ddc-Gal4 (dopaminergic neuron-specific), elav-Gal4 (pan-neuronal), UAS-mito-GFP, and UAS-dAMPK-KA were purchased from Bloomington Drosophila Stock Center. The parkin-null mutant flies were kind gifts from Chung J. and Cho K. S. (Korea Advanced Institute of Science and Technology, Daejeon, Korea). To generate transgenic mutant LRRK2 G2019S, cDNA containing a myc-tag at the C terminus was inserted into pUAST plasmid and microinjected into Drosophila embryos (BestGene). Sequencing of cloned products was performed before they were microinjected into the embryos. Climbing assays were performed according to a previously described method. Briefly, 20 female adult flies from each group were randomly selected after being anaesthetised and placed in a vertical plastic column (length 25 cm; diameter 1.5 cm). Age-matched normal flies were used as controls. After a 2-hour recovery period from CO2 exposure, flies were gently tapped to the bottom of the column, and the number of flies that reached the top of column at 1 min was counted. Results are presented as mean ± SEM of the scores obtained from three independent experiments. To study the effect of compounds, flies were fed with cornmeal-agar medium supplemented with the DMSO solution of the compound immediately at post-eclosion (for parkin-null flies) or at day 35 onwards (for LRRK2 mutant flies) for a period of 25 days. Immunohistochemical analysis of whole-mount adult fly brains were prepared according to published protocols and stained with rabbit anti-TH (1:300, Pel-Freez Biologicals) as primary antibody. The stained samples were viewed using an Olympus Fluoview Upright Confocal Microscope. DA neurons were quantified according to previously published method. The size of mito-GFP puncta was measured using the ImageJ program and expressed as mean ± SD (n ≥ 10 DA neurons per experimental group). Statistical significance for all the quantitative data obtained were analyzed using one-way ANOVA with Tukey’s test HSD post hoc test (*p < 0.05, **p < 0.01).

[1] = target: T1, human A1 receptors expressed in CHO cells (Homo sapiens, UniProt P30542); experiment: competition binding at human A1 adenosine receptors ([3H]CCPA displacement); details: displacement of [3H]CCPA, 95% confidence limits, n = 3–6, read-out: Ki hA1
T1 sequence (P30542 1-326): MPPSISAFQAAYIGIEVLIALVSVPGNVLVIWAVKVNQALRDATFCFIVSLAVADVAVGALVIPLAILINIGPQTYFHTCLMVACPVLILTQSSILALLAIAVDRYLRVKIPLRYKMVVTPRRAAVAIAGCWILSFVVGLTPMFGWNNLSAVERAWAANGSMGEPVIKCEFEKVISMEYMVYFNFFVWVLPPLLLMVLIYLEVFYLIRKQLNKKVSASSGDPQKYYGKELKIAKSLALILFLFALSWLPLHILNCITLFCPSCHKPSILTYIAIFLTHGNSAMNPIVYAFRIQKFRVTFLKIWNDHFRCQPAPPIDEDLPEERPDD
Procedure: A two-step procedure was adopted to prepare membrane for radioligand binding from cells stably transfected with human adenosine receptor subtypes (hA1, hA2A and hA3 expressed on CHO cells). Firstly, cell fragments and nuclei were removed by using low-speed centrifugation (1,000 g for 10 min). After that, crude membrane fraction from supernatant was then sedimented at 100,000 g for 30 min. The membrane pellet was subsequently re-suspended in the specific binding buffer, frozen in liquid nitrogen and stored at -80°C. For measurement of adenylyl cyclase activity in the hA2B receptors, one-step centrifugation procedure was used; the homogenate was sedimented for 30 min at 54,000 g. The so-obtained crude membrane pellet was re-suspended in 50 mM Tris/HCl, pH 7.4 and used for the adenylyl cyclase assay immediately.
Non-specific binding was determined using theophylline 1 mM. […] Non-specific binding was determined using N^6-R-phenylisopropyl adenosine (R-PIA) 100 μM. ^41 The binding of [^3H]HEMADO to CHO cells transfected with hA3 adenosine receptors was carried out as described earlier. […] Non-specific binding was determined using R-PIA 100 μM.
The assay mixture was then filtered through the built-in filter at the bottom of the 96-well microplate filtration system (Millipore Multiscreen MAFC) and washed three times with 200 μL of cold buffer. After addition of 20 μL of scintillator to the dried filter plates, the filter bound radioactivity was counted on a Wallac Micro-Beta counter. All Ki values were calculated by non-linear curve fitting with the program SCTFIT [45].

SMILES | effect on fly viability / mortality (LRRK2 G2019S flies) | effect on fly viability (LRRK2 G2019S flies) | Ki [1] [µM]
Cc1cc(C)nc(N2CCN(C(=O)Cc3c(C)[nH]c4ccccc34)CC2)n1 [Compound 6, 1‐[4‐(4,6‐Dimethylpyrimidin‐2‐yl)piperazin‐1‐yl]‐2‐(2‐methyl‐1H‐indol‐3‐yl)ethan‐1‐one] | toxicity | lethal | > 100
Cc1cc(C)nc(N2CCN(C(=O)c3c[nH]c4ccccc34)CC2)n1 [Compound 5, 3‐[4‐(4,6‐Dimethylpyrimidin‐2‐yl)piperazine‐1‐carbonyl]‐1H‐indole] | able to delay the G2019S fly mortality | lethal | > 100
